Results as given in the supplement of paper PMC10307832.

What was measured:
Experiment in all cases: relative viability (nuclei count vs DMSO), 5 days (fraction); higher = more cells survive
[1] = compound: C/C(=N\NC(=S)N1CCC1)/C2=CC=CC=N2 + Cc1nc(NC(=O)N2CCC[C@H]2C(N)=O)sc1-c1ccnc(C(C)(C)C(F)(F)F)c1 [Alpelisib] (partner 2 µM)
Summary of the method: (§1)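 Five library-drug doses in √10 steps were combined with a fixed anchor-drug dose, or a single drug was given alone, by pin tool to lung cancer cell lines in 1536-well plates the day after seeding. Nuclei were stained and counted after 5 days. Relative viability is the nuclei count in treated wells over that in vehicle wells, taken as the median of duplicate plates.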

[2] = compound: C/C(=N\NC(=S)N1CCC1)/C2=CC=CC=N2 + NC(=O)Nc1cc(-c2cccc(F)c2)sc1C(=O)N[C@H]1CCCNC1 [AZD7762] (partner 0.2 µM)
Summary of the method: as §1

[3] = compound: C/C(=N\NC(=S)N1CCC1)/C2=CC=CC=N2 + CS(=O)(=O)N1CCN(Cc2cc3nc(-c4cccc5[nH]ncc45)nc(N4CCOCC4)c3s2)CC1 [Pictilisib] (partner 1 µM)
Summary of the method: as §1

[4] = compound: C/C(=N\NC(=S)N1CCC1)/C2=CC=CC=N2 + N=C(N)NC(=N)NCCc1ccccc1 [Phenformin] (partner 250 µM)
Summary of the method: as §1

Cell Line	relative viability ([1]; first compound 0.05 µM)	relative viability ([1]; first compound 0.1581 µM)	relative viability ([1]; first compound 0.5 µM)	relative viability ([1]; first compound 1.581 µM)	relative viability ([1]; first compound 5 µM)	relative viability ([2]; first compound 0.05 µM)	relative viability ([2]; first compound 0.1581 µM)	relative viability ([2]; first compound 0.5 µM)	relative viability ([2]; first compound 1.581 µM)	relative viability ([2]; first compound 5 µM)	relative viability ([3]; first compound 0.05 µM)	relative viability ([3]; first compound 0.1581 µM)	relative viability ([3]; first compound 0.5 µM)	relative viability ([3]; first compound 1.581 µM)	relative viability ([3]; first compound 5 µM)	relative viability ([4]; first compound 0.05 µM)	relative viability ([4]; first compound 0.1581 µM)	relative viability ([4]; first compound 0.5 µM)	relative viability ([4]; first compound 1.581 µM)	relative viability ([4]; first compound 5 µM)
201T	0.697	0.994	0.647	0.476	0.4	0.287	0.285	0.273	0.211	0.233	0.438	0.494	0.444	0.389	0.344	0.362	0.355	0.343	0.311	0.247
A-427	0.136	0.739	0.142	0.101	0.11	0.188	0.173	0.159	0.156	0.178	0.109	0.142	0.129	0.116	0.125	0.13	0.142	0.134	0.121	0.138
ABC-1	0.371	0.226	0.234	0.27	0.281	0.282	0.342	0.341	0.288	0.305	0.305	0.334	0.24	0.222	0.269	0.196	0.203	0.222	0.202	0.14
BEN	0.195	0.194	0.266	0.232	0.198	0.265	0.339	0.288	0.238	0.279	0.164	0.162	0.156	0.186	0.176	0.155	0.16	0.178	0.232	0.201
CAL-12T	0.148	0.146	0.126	0.127	0.121	0.284	0.226	0.281	0.206	0.159	0.168	0.198	0.138	0.167	0.178	0.171	0.15	0.136	0.112	0.101
COR-L23	0.113	0.123	0.097	0.0558	0.0865	–	–	–	–	–	0.134	0.0963	0.103	0.0639	0.0663	0.104	0.102	0.104	0.0877	0.0862
COR-L 105	0.301	0.266	0.275	0.222	0.217	–	–	–	–	–	0.318	0.346	0.325	0.279	0.254	0.198	0.299	0.29	0.196	0.214
Calu-6	0.141	0.151	0.148	0.151	0.124	–	–	–	–	–	0.109	0.139	0.152	0.141	0.132	–	–	–	–	–
ChaGo-K-1	–	–	–	–	–	0.177	0.175	0.154	0.154	0.154	0.233	0.392	0.232	0.237	0.293	0.176	0.194	0.188	0.152	0.174
EBC-1	0.191	0.192	0.166	0.152	0.147	–	–	–	–	–	0.164	0.205	0.187	0.116	0.14	–	–	–	–	–
EKVX	0.119	0.124	0.111	0.13	0.151	0.106	0.115	0.128	0.14	0.143	0.113	0.127	0.115	0.107	0.124	0.14	0.132	0.167	0.161	0.23
EMC-BAC-2	0.288	0.426	0.122	0.163	0.152	0.252	0.259	0.241	0.176	0.216	0.0912	0.166	0.173	0.193	0.19	0.156	0.233	0.214	0.211	0.212
EPLC-272H	0.125	0.293	0.185	0.166	0.203	0.106	0.104	0.106	0.0639	0.114	0.159	0.159	0.149	0.12	0.138	0.112	0.13	0.084	0.0614	0.122
H3255	0.242	0.323	0.221	0.181	0.214	0.302	0.308	0.286	0.244	0.237	0.244	0.23	0.192	0.222	0.203	0.318	0.333	0.317	0.301	0.346
HARA	0.31	0.0915	0.122	0.145	0.0798	0.129	0.199	0.144	0.104	0.124	0.0923	0.0752	0.0784	0.0856	0.0671	0.0726	0.0701	0.0872	0.047	0.0649
HCC-15	0.191	0.453	0.0722	0.0749	0.0746	0.084	0.084	0.105	0.113	0.103	0.0704	0.087	0.104	0.0822	0.0856	0.0651	0.134	0.144	0.0712	0.0989
HCC-44	0.473	0.143	0.178	0.162	0.218	0.702	0.573	0.488	0.445	0.47	0.341	0.142	0.125	0.149	0.217	0.0955	0.14	0.0915	0.153	0.188
HCC-78	0.257	0.252	0.177	0.153	0.158	0.327	0.332	0.226	0.169	0.174	0.184	0.176	0.119	0.163	0.153	0.279	0.367	0.314	0.247	0.213
HCC-366	0.0241	0.013	0.0152	0.0166	0.0137	0.0319	0.0257	0.0217	0.0308	0.0241	0.0297	0.0246	0.029	0.0344	0.0355	0.0354	0.0736	0.0328	0.0375	0.0286
HCC-827	0.556	1.01	0.264	0.279	0.186	0.14	0.176	0.104	0.106	0.172	0.6	0.541	0.322	0.382	0.388	0.222	0.239	0.201	0.173	0.175

Cell Line	relative viability ([1]; first compound 0.05 µM)	relative viability ([1]; first compound 0.1581 µM)	relative viability ([1]; first compound 0.5 µM)	relative viability ([1]; first compound 1.581 µM)	relative viability ([1]; first compound 5 µM)	relative viability ([2]; first compound 0.05 µM)	relative viability ([2]; first compound 0.1581 µM)	relative viability ([2]; first compound 0.5 µM)	relative viability ([2]; first compound 1.581 µM)	relative viability ([2]; first compound 5 µM)	relative viability ([3]; first compound 0.05 µM)	relative viability ([3]; first compound 0.1581 µM)	relative viability ([3]; first compound 0.5 µM)	relative viability ([3]; first compound 1.581 µM)	relative viability ([3]; first compound 5 µM)	relative viability ([4]; first compound 0.05 µM)	relative viability ([4]; first compound 0.1581 µM)	relative viability ([4]; first compound 0.5 µM)	relative viability ([4]; first compound 1.581 µM)	relative viability ([4]; first compound 5 µM)
HOP-62	0.105	0.895	0.0809	0.0743	0.0607	0.0756	0.0789	0.0592	0.0773	0.111	0.0606	0.0715	0.0848	0.0699	0.0611	0.0721	0.0624	0.0719	0.0958	0.0779
IA-LM	0.0645	0.0816	0.0594	0.0596	0.0781	–	–	–	–	–	0.0879	0.0508	0.0707	0.0558	0.0544	–	–	–	–	–
LC-2-ad	0.126	0.109	0.107	0.104	0.0953	0.212	0.202	0.182	0.165	0.163	0.141	0.106	0.103	0.103	0.117	0.29	0.277	0.259	0.19	0.226
LCLC-97TM1	0.107	0.203	0.107	0.106	0.112	0.0761	0.0694	0.0641	0.0548	0.0577	0.101	0.141	0.0914	0.117	0.101	0.128	0.189	0.109	0.166	0.139
LCLC-103H	0.34	0.978	0.24	0.257	0.233	0.272	0.219	0.27	0.185	0.262	0.269	0.254	0.266	0.234	0.265	0.17	0.172	0.21	0.129	0.187
NCI-H520	0.159	0.144	0.124	0.138	0.154	–	–	–	–	–	0.176	0.186	0.18	0.16	0.208	0.149	0.255	0.168	0.143	0.251
NCI-H661	0.153	0.268	0.145	0.172	0.202	–	–	–	–	–	0.222	0.239	0.232	0.237	0.21	0.262	0.269	0.254	0.211	0.231
NCI-H1299	0.094	0.195	0.213	0.213	0.15	–	–	–	–	–	0.0583	0.0875	0.103	0.0673	0.0511	–	–	–	–	–
NCI-H1563	0.528	0.493	0.492	0.573	0.596	–	–	–	–	–	0.593	0.519	0.614	0.561	0.584	0.374	0.472	0.491	0.506	0.611
NCI-H1648	–	–	–	–	–	0.337	0.305	0.269	0.288	0.297	–	–	–	–	–	–	–	–	–	–
NCI-H1650	–	–	–	–	–	–	–	–	–	–	0.17	0.214	0.186	0.165	0.193	0.122	0.16	0.194	0.14	0.18
NCI-H1703	0.0878	0.0975	0.132	0.112	0.122	0.0509	0.0548	0.0472	0.114	0.102	0.102	0.0942	0.162	0.159	0.167	–	–	–	–	–
NCI-H2009	0.113	0.135	0.15	0.164	0.141	–	–	–	–	–	0.144	0.156	0.178	0.172	0.0975	0.125	0.185	0.221	0.154	0.184
NCI-H2023	0.0758	0.0838	0.0704	0.0784	0.0669	–	–	–	–	–	0.064	0.0997	0.084	0.0661	0.0904	0.102	0.106	0.0921	0.0767	0.0997
NCI-H2228	0.154	0.18	0.227	0.124	0.147	–	–	–	–	–	0.148	0.285	0.168	0.163	0.12	0.127	0.158	0.172	–	0.111
NCI-H2342	–	–	–	–	–	0.302	0.32	0.278	0.256	0.285	–	–	–	–	–	0.25	0.232	0.266	0.231	0.25
SK-LU-1	0.209	0.163	0.19	0.146	0.196	–	–	–	–	–	0.166	0.188	0.212	0.158	0.139	0.124	0.152	0.174	0.104	0.123
SK-MES-1	0.203	0.205	0.188	0.165	0.183	–	–	–	–	–	0.168	0.174	0.153	0.139	0.162	0.219	0.233	0.197	0.175	0.173
SW 1573	0.107	0.155	0.169	0.1	0.0847	–	–	–	–	–	0.102	0.0856	0.0985	0.104	0.0817	0.0755	0.0616	0.0965	0.0629	0.0599
UMC-11	0.235	0.182	0.153	0.117	0.126	–	–	–	–	–	0.19	0.174	0.189	0.144	0.133	0.202	0.19	0.207	0.185	0.168
